Structures can show the parent of a compound that is named as a salt.
Tests used:
[1] = test system: human ApoA-I promoter; assay: ApoA-I promoter induction in Caco-2 intestinal cells (pAI.474-Luc luciferase reporter); assay type: cell-based; settings: Caco-2 cells, 15 μM, 48 hours incubation, luciferase activity vs control samples
Method: To examine the effects of compounds of the invention to increase ApoA-I expression, Caco-2 cells, an intestinal cell line derived from human epithelial intestinal cells, were grown under conditions recommended by the ATCC and summarized in United States Patent Application Publication No. 20040033480 (“Wong”), incorporated herein by reference.
Briefly, the promoter region of the gene encoding human ApoA-I was isolated and ligated upstream of the firefly luciferase gene to construct the reporter plasmid pAI.474-Luc. This reporter plasmid and pRSV-β-galactosidase (as a control for transfection efficiency) were co-transfected to Caco-2 cells. The Caco-2 cells were then incubated in a MEM selection media containing 20% fetal calf serum supplemented with G418 (final concentration: 0.5 mg/mL, Gibco) to give established strains that stably express from the reporter gene. The strains were seeded in 6-well culture plates and incubated for 48 hours at 37° C. under 5% carbon dioxide. Cells were starved for 24 hrs in MEM selection media containing 0.5% FBS. Then, a solution of a compound of the invention in DMSO or other appropriate solvent was added to the wells at a final concentration of 0 to 100 μM in MEM selection media containing 0.5% FBS.
After further incubation for 48 hours, the cells were harvested and lysed using Reporter Lysis Buffer (PROMEGA E3971), and 50 μL of luciferase assay reagent (PROMEGA E4550 Luciferase Reporter 1000 assay system) was added to measure luciferase activity with a luminometer (Fluoroskan Ascent FL from Thermo electron Corporation). Luciferase activity was normalized to lysate protein concentrations, measured using Bradford Reagent (BioRad Protein Assay reagent Cat #500-0006). The luciferase activity of cells treated with various concentrations of test compounds was compared to that of solvent control sample (i.e., solvent without any compound of the present invention added) and untreated control sample.

| melting point [°C] | Structure (SMILES) | ApoA-I Promoter Induction [1] |
| --- | --- | --- |
| 256.4 to 258.5 | Cl.Nc1cccc2c(=O)cc(-c3ccc(O)c(F)c3)oc12 | – |
| 243 to 247 | O=c1cc(-c2ccc(C[n+]3ccccc3)cc2)oc2ccc(O)cc12.[Cl-] | – |
| – | O=c1cc(-c2cccc(O)c2)oc2ccccc12 [2-(3-Hydroxyphenyl)-4H-chromen-4-one, 2-(3-hydroxyphenyl)-4H-chromen-4-one, reference compound] | increased |
| – | O=c1cc(-c2ccc(O)cc2)oc2ccccc12 [2-(4-Hydroxyphenyl)-chromen-4-one, 2-(4-Hydroxy-phenyl)-chromen-4-one, reference compound] | increased |
| – | COc1cc(-c2cc(=O)c3ccccc3o2)ccc1O [2-(4-hydroxy-3-methoxyphenyl)-4H-chromen-4-one, reference compound] | increased |
| – | O=c1cc(-c2ccccc2)oc2ccccc12 [2-Phenyl-4H-chromen-4-one, 2-phenyl-4H-chromen-4-one, reference compound] | increased |
| – | O=c1c(-c2ccc(O)cc2)coc2cc(O)cc(O)c12 [5,7-dihydroxy-3-(4-hydroxyphenyl)-4H-chromen-4-one, reference compound] | increased |
| – | O=c1cc(-c2ccc(O)cc2)oc2cccc(O)c12 [5-Hydroxy-2-(4-hydroxy-phenyl)-chromen-4-one, reference compound] | increased |
| – | O=c1cc(-c2ccccc2)oc2cccc(O)c12 [5-Hydroxy-2-phenyl-4H-chromen-4-one, 5-Hydroxy-2-phenyl-chromen-4-one, reference compound] | increased |
| – | O=c1cc(-c2ccc(O)cc2)oc2ccc(O)cc12 [6-hydroxy-2-(4-hydroxyphenyl)-4H-chromen-4-one, reference compound] | increased |
| – | O=c1cc(-c2ccc(O)cc2)oc2cc(O)ccc12 [7-Hydroxy-2-(4-hydroxy-phenyl)-chromen-4-one, reference compound] | increased |
| – | O=c1cc(-c2ccccc2)oc2cc(O)ccc12 [7-Hydroxy-2-phenyl-4H-chromen-4-one, 7-hydroxy-2-phenyl-4H-chromen-4-one, reference compound] | increased |
| – | COc1ccc(-c2cc(=O)c3c(F)cc(F)cc3o2)cc1 [Example 1, 5,7-Difluoro-2-(4-methoxy-phenyl)-chromen-4-one] | no increase |
| – | O=c1cc(-c2ccc(O)cc2)oc2cc(F)cc(F)c12 [Example 2, 5,7-Difluoro-2-(4-hydroxyphenyl)-4H-chromen-4-one] | increased |
| – | COc1ccc(-c2cc(=O)c3ccccc3o2)cc1 [Example 4, 2-(4-Methoxy-phenyl)-4H-chromen-4-one] | increased |
| – | O=c1cc(-c2ccc(O)cc2)oc2c(O)cccc12 [Example 5, 8-Hydroxy-2-(4-hydroxy-phenyl)-4H-chromen-4-one] | increased |
| 253 to 255 | CC(=O)Nc1cc(O)ccc1-c1cc(=O)c2ccccc2o1 [Example 8, N-[5-Hydroxy-2-(4-oxo-4H-chromen-2-yl)-phenyl]acetamide] | – |
| 277 to 279 | O=c1cc(-c2ccc(O)cc2[N+](=O)[O-])oc2ccccc12 [Example 10, 2-(4-Hydroxy-2-nitrophenyl)chromen-4-one] | – |
| 287 to 289 | O=c1cc(-c2ccc(O)cc2F)oc2ccccc12 [Example 15, 2-(2-Fluoro-4-hydroxyphenyl)chromen-4-one] | – |
| 299 to 301 | O=c1cc(-c2ccc(O)cc2)oc2c([N+](=O)[O-])cccc12 [Example 16, 2-(4-Hydroxyphenyl)-8-nitro-4H-chromen-4-one] | – |
| 281 to 283 | COc1cccc2c(=O)cc(-c3ccc(O)cc3)oc12 [Example 17, 2-(4-Hydroxyphenyl)-8-methoxy-4H-chromen-4-one] | increased |
| 301 to 303 | COc1cc(OC)c2c(=O)cc(-c3ccc(O)cc3)oc2c1 [Example 18, 2-(4-Hydroxyphenyl)-5,7-dimethoxy-4H-chromen-4-one] | increased |

| melting point [°C] | Structure (SMILES) | ApoA-I Promoter Induction [1] |
| --- | --- | --- |
| 273.5 to 274.9 | O=c1cc(-c2ccc(O)c(Br)c2)oc2ccccc12 [Example 19, 2-(3-Bromo-4-hydroxyphenyl)-4H-chromen-4-one] | increased |
| 271.5 to 272.3 | CN(C)Cc1c(-c2ccc(O)cc2)oc2ccccc2c1=O.Cl [Example 20, 3-((Dimethylamino)methyl)-2-(4-hydroxyphenyl)-4H-chromen-4-one hydrochloride] | no increase |
| 258.2 to 259.5 | N#CCc1c(-c2ccc(O)cc2)oc2ccccc2c1=O [Example 21, 2-(2-(4-Hydroxyphenyl)-4-oxo-4H-chromen-3-yl)acetonitrile] | increased |
| 234 to 235 | O=c1c(CO)c(-c2ccc(O)cc2)oc2ccccc12 [Example 22, 3-(Hydroxymethyl)-2-(4-hydroxyphenyl)-4H-chromen-4-one] | – |
| 296 to 298 | N#Cc1ccc2oc(-c3ccc(O)cc3)cc(=O)c2c1 [Example 23, 2-(4-Hydroxyphenyl)-4-oxo-4H-chromene-6-carbonitrile] | – |
| 236.2 to 238.5 | CC(=O)Oc1ccc(-c2cc(=O)c3cc(Br)cc([N+](=O)[O-])c3o2)cc1F [Example 25, 4-(6-Bromo-8-nitro-4-oxo-4H-chromen-2-yl)-2-fluorophenyl acetate] | increased |
| 237 to 239 | COCc1c(-c2ccc(O)cc2)oc2ccccc2c1=O [Example 26, 2-(4-Hydroxyphenyl)-3-(methoxymethyl)-4H-chromen-4-one] | increased |
| 99 to 102 | CN(C)Cc1ccc2oc(-c3ccc(O)cc3)cc(=O)c2c1 [Example 28, 6-((Dimethylamino)methyl)-2-(4-hydroxyphenyl)-4H-chromen-4-one] | – |
| 307 to 308 | O=c1cc(-c2ccc(O)cc2)oc2c[n+]([O-])ccc12 [Example 30, 2-(4-Hydroxyphenyl)-4-oxo-4H-pyrano[2,3-c]pyridine 7-oxide] | no increase |
| 314 to 315 | O=c1cc(-c2ccc(O)cc2)oc2c1ccc[n+]2[O-] [Example 31, 2-(4-Hydroxyphenyl)-4-oxo-4H-pyrano[2,3-b]pyridine 8-oxide] | no increase |
| – | O=c1cc(-c2ccc(O)cc2)oc2cc[n+]([O-])cc12 [Example 32, 2-(4-Hydroxyphenyl)-4-oxo-4H-pyrano[3,2-c]pyridine 6-oxide] | no increase |
| 250 to 252 | N#Cc1ccc(-c2cc(=O)c3cccnc3o2)cc1 [Example 40, 4-(4-Oxo-4H-pyrano[2,3-b]pyridine-2-yl)benzonitrile] | increased |
| – | O=c1cc(-c2ccc(O)cc2)[nH]c2cc(O)cc(O)c12 [Example 50, 5,7-Dihydroxy-2-(4-hydroxyphenyl)-quinolin-4(H)-one] | increased |
| 182 to 184 | Cn1c(-c2ccc(O)c(F)c2)cc2ncccc2c1=O [Example 56, 7-(3-Fluoro-4-hydroxyphenyl)-6-methyl-1,6-naphthyridin-5(6H)-one] | no increase |
| 185 to 187 | CNc1nc(-c2ccc(O)c(F)c2)cc2c(OC)cccc12 [Example 58, 2-Fluoro-4-(5-methoxy-1-(methylamino)isoquinolin-3-yl)phenol] | – |
| 289 to 291 | COc1cccc2c(=O)[nH]c(-c3ccc(O)c(F)c3)cc12 [Example 59, 3-(3-Fluoro-4-hydroxyphenyl)-5-methoxyisoguinolin-1(2H)-one] | increased |
| – | Oc1ccc(-c2ccc3ccccc3c2)cc1 [Example 65, 4-Naphthalen-2-yl-phenol] | increased |
| 222 to 224 | O=C1C=C(c2ccc(O)cc2)S(=O)(=O)c2ccccc21 [Example 66, 2-(4-Hydroxy-phenyl)-1,1-dioxo-1H-1λ^6-thiochromen-4-one] | – |
| 273 to 275 | O=c1nc(-c2ccc(O)cc2)oc2ccccc12 [Example 67, 2-(4-Hydroxyphenyl)benzo[e][1,3]oxazin-4-one] | increased |
| 168 to 169 | Oc1ccc(-c2ccc3ccccc3c2)nc1 [Example 68, 6-Naphthalen-2-yl-pyridin-3-ol] | – |
| – | N=C(N)NCCCC(N)C(=O)Oc1ccc(-c2cc(=O)c3ccccc3o2)cc1 (centres unmarked) [Example 76, 2-Amino-5-guanidino-pentanoic acid 4-(4-oxo-4H-chromen-2-yl)phenyl ester trihydrochloride] | increased |
